The subject of test [1] is Neisseria meningitidis. In words: Inhibition of Neisseria meningitidis alpha-1,4-galactosyltransferase assessed as consumption of donor UDP-Gal by measuring turnover rate at 0.1 to 100 uM using lactose as substrate preincubated for 30 mins followed by lactose and UDP-Gal addition measured after 20 mins by malachite green dye-based assay relative to total UDP-Gal used.
Test [2] concerns Neisseria meningitidis. As to the kind of experiment: Inhibition of Neisseria meningitidis alpha-1,4-galactosyltransferase assessed as as consumption of donor UDP-Gal by measuring turnover rate at 0.1 to 50 uM using lactose as substrate preincubated for 20 mins followed by lactose and UDP-Gal addition measured after 20 mins by malachite green dye-based assay relative to total UDP-Gal used.

Data on two compounds can be found in ChEMBL document CHEMBL4052634, “Covalent inhibitors of LgtC: A blueprint for the discovery of non-substrate-like inhibitors for bacterial glycosyltransferases” (Bioorg Med Chem, 2017).

Each structure is given as a SMILES string.

For `O=C1/C(=C\c2cccc(OCc3ccccc3)c2)C(C(F)(F)F)=NN1c1ccccc1`, the inhibition (in general, how much of the control response was suppressed) in the test with Neisseria meningitidis [1] amounted to 24%. As for `COc1ccc(/C=C2\C(=O)N(c3ccccc3)N=C2C(F)(F)F)cc1Br`, in the test on Neisseria meningitidis [2], the inhibition stood at 32%.
